Experimental data taken from patent US20250082633A1, “COMPOUNDS AND METHODS FOR MODULATING SPLICING” (REMIX THERAPEUTICS INC., priority 2021, published 2025).
Where two headings read alike, the source gives them in different places.

Columns and labels:
MYB mRNA = assay: RT-qPCR splicing assay, MYB canonical (CJ) and alternative (AJ) junction mRNA; assay type: cell-based; conditions: Homo sapiens; for IC50: read-out: MYB CJ IC50; for AC50: read-out: MYB AJ AC50
Procedure: Compounds described herein were used to modulate RNA transcript abundance in cells. The expression of a target mRNA was measured by detecting the formation of an exon-exon junction in the canonical transcript (CJ). A compound mediated exon-inclusion event was detected by observing an increase in formation of a new junction with an alternative exon (AJ). Real-time qPCR assays were used to detect these splicing switches and interrogate the potency of various compounds towards different target genes. A high-throughput real time quantitative PCR (RT-qPCR) assay was developed to measure these two isoforms of the mRNA (CJ and AJ) for exemplary genes, such as HTT, SMN2, and MYB, together with a control housekeeping gene, GAPDH or GUSB or PPIA, used for normalization. Briefly, the A673 or K562 cell line was treated with various compounds described herein (e.g., compounds of Formula (I)). After treatment, the levels of the HTT, MYB, or SMN2 mRNA targets were determined from each sample of cell lysate by cDNA synthesis followed by qPCR.
• Cells-to-CT 1-step kit: ThermoFisher A25602, Cells-to-CT lysis reagent: ThermoFisher 4391851C, TaqMan™ Fast Virus 1-Step Master Mix: ThermoFisher 4444436 • GAPDH: VIC-PL, ThermoFisher 4326317E (Assay: Hs99999905_m1)—used for K562/suspension cell lines • GUSB: VIC-PL, ThermoFisher 4326320E (Assay: Hs99999908_m1)—used for K562/suspension cell lines • PPIA: VIC-PL, ThermoFisher 4326316E (Assay: Hs99999904_m1)—used for A673/adherent cell lines
The A673 cell line was cultured in DMEM with 10% FBS. Cells were diluted with full growth media and plated in a 96-well plate (15,000 cells in 100 ul media per well). The plate was incubated at 37° C. with 5% CO2 for 24 hours to allow cells to adhere. An 11-point 3-fold serial dilution of the compounds was made in DMSO then diluted in media in an intermediate plate. Compounds were transferred from the intermediate plate to the cell plate with the top dose at a final concentration of 10 uM in the well. Final DMSO concentration was kept at or below 0.25%. The cell plate was returned to the incubator at 37° C. with 5% CO2 for an additional 24 hours.
The K562 cell line was cultured in IMDM with 10% FBS. For K562, cells were diluted with full growth media and plated in either a 96-well plate (50,000 cells in 50 uL media per well) or a 384-well plate (8,000-40,000 cells in 45 uL media per well). An 11-point 3-fold serial dilution of the compounds were made in DMSO then diluted in media in an intermediate plate. Compound was transferred from the intermediate plate to the cell plate with the top dose at a final concentration of 10 uM in the well. Final DMSO concentration was kept at or below 0.25%. Final volume was 100 uL for 96-well plate and 50 uL for 384-well plate. The cell plate was then placed in an incubator at 37° C. with 5% CO2 for 24 hours.
The cells were then gently washed with 50 uL-100 uL cold PBS before proceeding to addition of lysis buffer. 30 uL-50 μL of room temperature lysis buffer with DNAse I (and optionally RNAsin) was added to each well. Cells were shaken/mixed thoroughly at room temperature for 5-10 minutes for lysis to take place and then 3 uL-5 μL of room temperature stop solution was added and wells were shaken/mixed again. After 2-5 minutes, the cell lysate plate was transferred to ice for RT-qPCR reaction setup. The lysates could also be frozen at −80° C. for later use.
In some cases, a direct lysis buffer was used. An appropriate volume of 3× lysis buffer (10 mM Tris, 150 mM NaCl, 1.5%-2.5% Igepal and 0.1-1 U/uL RNAsin, pH 7.4) was directly added to either K562 or A673 cells in media and mixed by pipetting 3 times. The plates were then incubated at room temperature with shaking/rocking for 20-50 minutes to allow for lysis to take place. After this time, the cell lysate plate was transferred to ice to set up for the RT-qPCR reactions. The lysates could also be frozen at −80° C. for later use. […]

K562 cells = assay: Cell Titer Glo 2.0 cell viability assay; assay type: cell-based; conditions: Homo sapiens, 500 cells/well, 72 hours
Procedure: Compounds described herein were screened for toxicity in K562 (human chronic myelogenous leukemia) and SH-SY5Y (human neuroblastoma) cells using a Cell Titer Glo 2.0 assay. • Promega CellTiter-Glo® 2.0 Cell Viability Assay (cat #G9241) • Corning 384-well TC-treated microplates (cat #3570) Cells were plated at 500 cells/well (K562 cells) in 45 μL of IMDM supplemented with 10% FBS in a 384-well opaque plate. Wells containing only medium were used as a blank control. Test compounds (e.g., compounds of Formula (I), (II), or (III)) were first serially diluted in DMSO then diluted 1:100 with IMDM+10% FBS. The final concentration of DMSO was 0.1% in each well. The cells were incubated for 72 hours at 37° C. and 5% CO2 before assaying with Cell Titer Glo 2.0 reagent.

[1] = decrease in CJ mRNA levels, larger panel of genes, Table 3
[2] = decrease in canonical junction mRNA, A673 or K562 cells, 24 hours treatment, Table 2
[3] = increase in alternative junction mRNA, A673 or K562 cells, 24 hours treatment, Table 2

Compound	IC50 (MYB mRNA; [1]) [µM]	IC50 (MYB mRNA; [2]) [µM]	AC50 (MYB mRNA; [3]) [µM]	GI50 (K562 cells) [µM]	AC50 (MYB mRNA; 24 h) [µM]	IC50 (MYB mRNA; 24 h) [µM]	IC50 (MYB mRNA) [µM]
CCN1CCC(n2cc3cc(-c4cc(C)c5nc(C)cn5n4)cc(F)c3n2)CC12CC2 (stereo not drawn) [Compound 177, 6-[2-(4-ethyl-4-azaspiro[2.5]octan-7-yl)-7-fluoro-indazol-5-yl]-2,8-dimethyl-imidazo[1,2-b]pyridazine]	0.1 to 1	0.1 to 1	0.1 to 1	0.1 to 1	–	–	–
Cc1ccc2cc(-c3cc(F)c4nn(C5CCNCC5)cc4c3)ccc2n1 [Compound 163, 6-[7-fluoro-2-(4-piperidyl)indazol-5-yl]-2-methyl-quinoline]	> 10	> 10	> 10	1 to 10	–	–	–
Cc1cc(-c2cc(F)c3nn(C4CCNCC4)cc3c2)cc2cn(C)nc12 [Compound 133, 5-(2,7-dimethylindazol-5-yl)-7-fluoro-2-(4-piperidyl)indazole]	0.1 to 1	0.1 to 1	0.1 to 1	0.1 to 1	–	–	–
CCN1CCC(n2cc3cc(-c4cc(F)c5nn(C)cc5c4)cc(F)c3n2)CC1 [Compound 104, 2-(1-ethyl-4-piperidyl)-7-fluoro-5-(7-fluoro-2-methyl-indazol-5-yl)indazole]	1 to 10	1 to 10	1 to 10	1 to 10	–	–	–
Cc1cn2nc(-c3cc(F)c4nn(C5CCNC6(CC6)C5)cc4c3)cc(C)c2n1 (stereo not drawn) [Compound 171, 6-[2-(4-azaspiro[2.5]octan-7-yl)-7-fluoro-indazol-5-yl]-2,8-dimethyl-imidazo[1,2-b]pyridazine]	0.1 to 1	0.1 to 1	0.1 to 1	0.1 to 1	–	–	–
Cc1cn2cc(-c3cc(F)c4nn(C5CCNCC5)cc4c3)cc(C)c2n1 [Compound 125, 5-(2,8-dimethylimidazo[1,2-a]pyridin-6-yl)-7-fluoro-2-(4-piperidyl)indazole]	0.1 to 1	0.1 to 1	0.1 to 1	0.1 to 1	–	–	–
Cc1cn2nc(-c3cc(F)c4nn(C5CCNC6(CCC6)C5)cc4c3)cc(C)c2n1 (stereo not drawn) [Compound 189, 6-[2-(5-azaspiro[3.5]nonan-8-yl)-7-fluoro-indazol-5-yl]-2,8-dimethyl-imidazo[1,2-b]pyridazine]	0.1 to 1	0.1 to 1	0.1 to 1	0.1 to 1	–	–	–
Cc1cn2nc(-c3cc(F)c4nn(C5CCNCC5F)cc4c3)cc(C)c2n1 (stereo not drawn) [Compound 166, 6-[7-fluoro-2-(3-fluoro-4-piperidyl)indazol-5-yl]-2,8-dimethyl-imidazo [1,2-b]pyridazine]	0.1 to 1	0.1 to 1	0.1 to 1	1 to 10	–	–	–
Cn1cc2cc(-c3ccc4nn(C5CCNCC5)cc4n3)c(O)c(F)c2n1 [Compound 107, 7-fluoro-2-methyl-5-[2-(4-piperidyl)pyrazolo [4,3-b]pyridin-5-yl]indazol-6-ol]	0.1 to 1	0.1 to 1	0.1 to 1	0.1 to 1	–	–	–
Cc1cn2nc(-c3ccc4nn(C5CCNCC5)cc4n3)cc(C)c2n1 [Compound 138, 2,8-dimethyl-6-[2-(4-piperidyl)pyrazolo[4,3-b]pyridin-5-yl]imidazo[1,2-b]pyridazine]	0.1 to 1	0.1 to 1	1 to 10	1 to 10	–	–	–
Cn1cc2cc(-c3ccc4cn(C5CCNCC5)nc4c3)cc(F)c2n1 [Compound 148, 7-fluoro-2-methyl-5-[2-(4-piperidyl)indazol-6-yl]indazole]	> 10	> 10	> 10	> 10	–	–	–
Cn1cc2cc(-c3cc(Cl)c4nn(C5CCNCC5)cc4n3)c(O)cc2n1 [Compound 141]	> 10	> 10	> 10	–	–	–	–
Cc1cn2cc(-c3cc(F)c4nn(C5CCNCC5)cc4c3)nc(C)c2n1 [Compound 132, 6-[7-fluoro-2-(4-piperidyl)indazol-5-yl]-2,8-dimethyl-imidazo[1,2-a]pyrazine]	1 to 10	1 to 10	1 to 10	1 to 10	–	–	–
Cc1cn2nc(-c3cc4cn(C5CCNCC5)nc4c(O)n3)cc(C)c2n1 [Compound 139, 5-(2,8-dimethylimidazo[1,2-b]pyridazin-6-yl)-2-(4-piperidyl)-6H-pyrazolo[3,4-c]pyridin-7-one]	0.1 to 1	0.1 to 1	0.1 to 1	–	–	–	–
Cc1cn2nc(-c3cc(F)c4nn(C5CCN(CCF)CC5)cc4c3)cc(C)c2n1 [Compound 152]	0.1 to 1	0.1 to 1	0.1 to 1	–	–	–	–
Cc1cn2nc(-c3cc(F)c4nn(C5CCN(C)CC5)cc4c3)cc(C)c2n1 [Compound 150, 6-[7-fluoro-2-(1-methyl-4-piperidyl)indazol-5-yl]-2,8-dimethyl-imidazo[1,2-b]pyridazine]	0.1 to 1	0.1 to 1	0.1 to 1	–	–	–	–
Cc1cn2nc(-c3cc4cn(C5CCNCC5)nc4c(OCc4ccccc4)n3)cc(C)c2n1 [Compound 153, 6-[7-benzyloxy-2-(4-piperidyl)pyrazolo [3,4-c]pyridin-5-yl]-2,8-dimethyl-imidazo[1,2-b]pyridazine]	1 to 10	1 to 10	> 10	–	–	–	–
Cc1cn2nc(-c3cc(F)c4nn(C5CCN(C6CCC6)CC5)cc4c3)cc(C)c2n1 [Compound 151, 6-[2-(1-cyclobutyl-4-piperidyl)-7-fluoro-indazol-5-yl]-2,8-dimethyl-imidazo [1,2-b] pyridazine]	–	–	–	–	0.1 to 1	< 0.1	< 0.1
